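Protocol summary: plate cells (96-well), add compound at 5 concentrations, incubate 48 h, interpolate endpoints linearly. GI50: concentration for 50% inhibition of growth.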 Calls of active or inactive are those of the source. No stated cut-off is given here; in the data, active = GI50 up to about 1.1 µM and inactive = higher.
What was measured:
Assay in all cases: growth of human tumour cells (NCI), 48 h
A498 = test system: A498
DU-145 = test system: DU-145
EKVX = test system: EKVX
HCC 2998 = test system: HCC 2998
IGROV-1 = test system: IGROV-1
KM12 = test system: KM12
M14 = test system: M14
MDA-MB-231 = test system: MDA-MB-231
MDA-N = test system: MDA-N
NCI-H226 = test system: NCI-H226
NCI/ADR-RES = test system: NCI/ADR-RES
PC-3 = test system: PC-3
SF-539 = test system: SF-539
SK-MEL-28 = test system: SK-MEL-28
SN12C = test system: SN12C
SR = test system: SR
SW-620 = test system: SW-620
TK-10 = test system: TK-10
U-251 = test system: U-251
UO-31 = test system: UO-31

Measured: GI50

COC(=O)C1=C(C)NC(C)=C([N+](=O)[O-])C1c1cccc(N=O)c1 (stereo not given)
inactive: A498 24.4 µM | DU-145 15.2 µM | EKVX 21.1 µM | HCC 2998 18.9 µM | IGROV-1 16 µM | KM12 13.6 µM | M14 13.1 µM | MDA-MB-231 18.3 µM | MDA-N 10 µM | NCI-H226 22 µM | NCI/ADR-RES 21 µM | PC-3 17.9 µM | SF-539 16.8 µM | SK-MEL-28 17.9 µM | SN12C 19.7 µM | SR 3.36 µM | SW-620 3.58 µM | TK-10 12.8 µM | U-251 18 µM | UO-31 12.1 µM

O=C(CN1CCCCC1)c1ccc2c(c1)Sc1ccccc1O2
inactive: A498 16 µM | DU-145 20.9 µM | EKVX 17.1 µM | HCC 2998 15.5 µM | IGROV-1 10.6 µM | KM12 16 µM | M14 14.1 µM | MDA-MB-231 16.7 µM | MDA-N 15.8 µM | NCI-H226 14.2 µM | NCI/ADR-RES 16.7 µM | PC-3 11.6 µM | SF-539 14.3 µM | SK-MEL-28 18.7 µM | SN12C 19.2 µM | SR 18.4 µM | SW-620 17.8 µM | TK-10 18.9 µM | U-251 15.5 µM | UO-31 10.4 µM

O=C(O[C@H]1[C@@H](O)[C@H](n2cnc3c(Cl)ncnc32)O[C@@H]1COC(c1ccccc1)(c1ccccc1)c1ccccc1)c1ccccc1
inactive: A498 17.2 µM | DU-145 1.91 µM | EKVX 14.8 µM | HCC 2998 16.1 µM | IGROV-1 15.9 µM | KM12 16.1 µM | M14 26.3 µM | MDA-MB-231 21.2 µM | MDA-N 35.9 µM | NCI-H226 13 µM | NCI/ADR-RES 34.8 µM | PC-3 11 µM | SF-539 20 µM | SK-MEL-28 46.3 µM | SN12C 11.9 µM | SR 2.67 µM | SW-620 54.5 µM | TK-10 45.2 µM | U-251 22.8 µM | UO-31 1.27 µM
